Measured values: patent US9109048B2, “Inhibition of tumor growth” (priority 1998, dated 2015)
In brackets after ≈: the same amount, converted by molar mass. Read-outs that look alike come from different tables or passages of the source. Square brackets hold non-standard residues; d marks the D form. Ends that are not written are not given here. Peptide text beside a SMILES is read from it. Orn = NCCC[C@H](N)C(=O)O

How the values were obtained:
Format in all cases: cell-based
[1] = system: Staphylococcus aureus ATCC 25923; experiment: MIC (minimum inhibitory concentration) test, microdilution
Outline: (§1)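 Standard broth microdilution MIC in 1% Bacto Peptone water, inoculum 2×10^6 CFU/ml of mid-log-phase bacteria grown in 2% peptone water. Run in triplicate; peptide concentration in wells verified by HPLC.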

[2] = system: MRSA (methicillin resistant S. aureus)
Procedure: (§2) The bacterial strains used were: Escherichia coli ATCC 25922 and Staphylococcus aureus ATCC 25923. All strains were stored at −70° C. The bacteria were grown in 2% Bacto Peptone water (Difco 1807-17-4). All tests were performed with bacteria in mid-logarithmic growth phase. Determination of the minimum inhibitory concentration (MIC) of the peptides for bacterial strains were performed in 1% Bacto Peptone water. A standard microdilution technique with an inoculum of 2×10^6 CFU/ml was used. All assays were performed in triplets. Since the peptides are positively charged and therefore could adhere to the plastic wells, we controlled the actual concentration of the peptides in the solution by HPLC. There was no difference between the concentration of the peptides before or after adding the solution to the plastic wells.
(§3) Table 15 below gives the antibacterial activity and toxicity data for some preferred peptides of the invention. MRSA is methicillin resistant S. aureus and MRSE is methicilin resistant S. epidermidis.

human red blood cells = experiment: Hemolytic assay
Procedure: The hemolytic activities of the peptides were determined using fresh human red blood cells. 8 ml blood was taken from a healthy person. 4 ml blood was transferred to a polycarbonate tube containing heparin to a final concentration of 10 U/ml, and the remaining 4 ml blood was transferred to a glass tube containing EDTA with final concentration of 15% EDTA. The erythrocytes were isolated from heparin-treated blood by centrifugation in 1500 rpm for 10 min and washed three times with phosphate-buffered saline (PBS) to remove plasma and buffy coat. The cell pellet was resuspended in PBS to make the final volume of 4 ml. The peptide was diluted to a concentration of 2 mg/ml and 0.1 mg/ml. The peptide was further diluted to the concentrations as stated in Table 1. For each tube PBS was added first, then RBCs and peptide solutions. The hematocrit in the blood treated with EDTA was determined after 30 min with Sysmex K-1000, and the resuspended RBCs were diluted into 10% hematocrit. RBCs in PBS (1%) with and without peptides (Table 18) were incubated in a shaker at 37° for 1 hour and then centrifuged at 4000 rpm for 5 min. The supernatant were carefully transferred to new polycarbonate tubes and the absorbance of the supernatant was measured at 540 nm. Baseline hemolysis was hemoglobin released in the presence of PBS, and 100% hemolysis was hemoglobin released in the presence of 0.1% Triton X-100.

[3] = system: Escherichia coli ATCC 25922; experiment: MIC (minimum inhibitory concentration) test, microdilution
Outline: as §1

[4] = system: human promyelotic leukemia cell line HL 60; experiment: Cytotoxicity on HL 60 cells, MTT; conditions: FIG. 7, concentrations tested
Procedure: HL 60 cells, 1×10^4 were incubated with peptides 50, 30, 20, 10, 5, 1 μg, 1000-20 μg/ml in 2 hours and coloured with MTT;

[5] = system: MRSE (methicilin resistant S. epidermidis)
Procedure: as §2, §3

[6] = Table 1, synthetic lactoferricins

CSCC[C@H](NC(=O)[C@H](CCCN)NC(=O)[C@H](Cc1c[nH]c2ccccc12)NC(=O)[C@H](C)NC(=O)[C@H](Cc1c[nH]c2ccccc12)NC(=O)[C@H](CCCN)NC(=O)[C@H](Cc1ccccc1)NC(=O)[C@H](C)NC(=O)[C@H](CCCN)NC(=O)[C@H](CCCN)NC(=O)[C@H](Cc1c[nH]c2ccccc12)NC(=O)[C@H](C)NC(=O)[C@@H]1CCCN1)C(=O)N[C@@H](CC(C)C)C(=O)N[C@@H](CCCN)C(=O)N[C@@H](CCCN)C(=O)N[C@@H](C)C(=O)N[C@@H](C)C(=O)O (H-PAW[Orn][Orn]AF[Orn]WAW[Orn]ML[Orn][Orn]AA-OH; N-terminus assumed)
MIC S. aureus ([1]; ATCC 25923): 1.2 µM | MIC S. aureus ([1]; Table 15): 2.5 µg/mL | MIC MRSA ([2]; Table 15): 2.5 µg/mL | MIC MRSA ([2]; methicillin resistant): 1.2 µM | EC 50 (toxicity, hemolysis) (human red blood cells; Table 15): 425 µg/mL (≈ 202 µM) | EC50 (human red blood cells; red cells of human): 202 µM

CSCC[C@H](NC(=O)[C@H](CCCNC(=N)N)NC(=O)[C@H](Cc1c[nH]c2ccccc12)NC(=O)[C@H](C)NC(=O)[C@H](Cc1c[nH]c2ccccc12)NC(=O)[C@H](CCCNC(=N)N)NC(=O)[C@H](CCCNC(=N)N)NC(=O)[C@H](C)NC(=O)[C@H](CCCCN)NC(=O)[C@H](Cc1ccccc1)NC(=O)[C@H](Cc1c[nH]c2ccccc12)NC(=O)[C@H](C)NC(=O)[C@@H]1CCCN1)C(=O)N[C@@H](CCCCN)C(=O)N[C@@H](CCCCN)C(=O)N[C@@H](CC(C)C)C(=O)N[C@@H](C)C(=O)N[C@@H](C)C(=O)O [LFB 14-31 A2,6,10,17]
MIC E. coli ([3]; ATCC 25922): 8.8 µM | MIC E. coli ([3]; Table 8): 20 µg/mL | MIC E. coli ([3]; Table 15): 20.0 µg/mL | MIC MRSA ([2]; Table 15): 5.0 µg/mL | MIC MRSA ([2]; methicillin resistant): 2.2 µM | EC50 (human red blood cells; red cells of human): > 440 µM | EC 50 (toxicity, hemolysis) (human red blood cells; red cells of human): >1000 µg/mL

CC[C@H](C)[C@H](NC(=O)[C@H](CO)NC(=O)[C@@H]1CCCN1C(=O)[C@H](C)NC(=O)CNC(=O)[C@H](CC(C)C)NC(=O)[C@H](CCCCN)NC(=O)[C@H](CCCCN)NC(=O)[C@H](CCSC)NC(=O)[C@H](CCCNC(=N)N)NC(=O)[C@H](Cc1c[nH]c2ccccc12)NC(=O)[C@H](CCC(N)=O)NC(=O)[C@H](Cc1c[nH]c2ccccc12)NC(=O)[C@H](CCCNC(=N)N)NC(=O)[C@H](CCCNC(=N)N)NC(=O)[C@H](CSCNC(C)=O)NC(=O)[C@H](CCCCN)NC(=O)[C@@H](N)Cc1ccccc1)C(=O)N[C@H](C(=O)N[C@@H](CSCNC(C)=O)C(=O)N[C@H](C(=O)N[C@@H](CCCNC(=N)N)C(=O)N[C@@H](CCCNC(=N)N)C(=O)N[C@@H](C)C(=O)N[C@@H](Cc1ccccc1)C(=O)O)C(C)C)[C@@H](C)O [LFB (17-41), reference compound]
Minimum inhibitory concentration (MIC) E. coli ATCC 25922 [3, 6]: 30 µg/mL (≈ 9.18 µM) | Minimum inhibitory concentration (MIC) S. aureus ATCC 25923 [1, 6]: 30 µg/mL (≈ 9.18 µM) | cytotoxic effect on human HL 60 cells [4]: weak concentration dependant cytotoxic effect

CSCC[C@H](NC(=O)[C@H](CCCNC(=N)N)NC(=O)[C@H](Cc1ccc2ccccc2c1)NC(=O)[C@H](CCC(N)=O)NC(=O)[C@H](Cc1ccc2ccccc2c1)NC(=O)[C@H](CCCNC(=N)N)NC(=O)[C@H](CCCNC(=N)N)NC(=O)[C@H](CSCNC(C)=O)NC(=O)[C@H](CCCCN)NC(=O)[C@@H](N)Cc1ccccc1)C(=O)N[C@@H](CCCCN)C(=O)N[C@@H](CCCCN)C(=O)N[C@@H](CC(C)C)C(=O)NCC(=O)N[C@@H](C)C(=O)O [LFB Nal6,8]
MIC E. coli ([3]; Table 9): 10 µg/mL | MIC E. coli ([3]; Table 15): 10.0 µg/mL | MIC S. aureus ([1]; Table 9): 20 µg/mL | MIC S. aureus ([1]; Table 15): 20.0 µg/mL | MIC MRSA ([2]; Table 15): 5.0 µg/mL | EC 50 (toxicity, hemolysis) (human red blood cells; red cells of human): >1000 µg/mL

CSCC[C@H](NC(=O)[C@H](CCCNC(=N)N)NC(=O)[C@H](Cc1c[nH]c2ccccc12)NC(=O)[C@H](CCC(N)=O)NC(=O)[C@H](Cc1c(S(=O)(=O)c2c(C)c(C)c3c(c2C)CCC(C)(C)O3)[nH]c2ccccc12)NC(=O)[C@H](CCCNC(=N)N)NC(=O)[C@H](CCCNC(=N)N)NC(=O)[C@H](CSCNC(C)=O)NC(=O)[C@H](CCCCN)NC(=O)[C@@H](N)Cc1ccccc1)C(=O)N[C@@H](CCCCN)C(=O)N[C@@H](CCCCN)C(=O)N[C@@H](CC(C)C)C(=O)NCC(=O)N[C@@H](C)C(=O)O [LFB PMC6]
MIC E. coli ([3]; ATCC 25922): 4.3 µM | MIC E. coli ([3]; Table 13): 10 µg/mL | MIC E. coli ([3]; Table 15): 10.0 µg/mL | MIC S. aureus ([1]; Table 15): 2.5 µg/mL | MIC MRSA ([2]; Table 15): 2.5 µg/mL | MIC MRSA ([2]; methicillin resistant): 1.1 µM | EC 50 (toxicity, hemolysis) (human red blood cells; red cells of human): >1000 µg/mL

H-FKWRRWQWRMKKLWA-OH [LFBW3,14, H2N-Phe-Lys-Trp-Arg-Arg-Trp-Gln-Trp-Arg-Met-Lys-Lys-Leu-Trp-Ala-COOH]
MIC E. coli ([3]; ATCC 25922): 4.5 µM | MIC E. coli ([3]; Table 14): 10 µg/mL | MIC E. coli ([3]; Table 15, 14): 10.0 µg/mL | MIC S. aureus ([1]; Table 15, 14): 2.5 µg/mL | MIC MRSA ([2]; Table 15, 14): 2.5 µg/mL | MIC MRSA ([2]; methicillin resistant): 1.1 µM | MIC MRSE ([5]; Table 15, 14): 2.5 µg/mL | MIC MRSE ([5]; methicilin resistant): 1.1 µM | EC 50 (toxicity, hemolysis) (human red blood cells; red cells of human): >1000 µg/mL

RRWYRWWR-NH2 [LFM 17-24 R1,2,8 W3,7Y4NH2]
MIC E. coli ([3]; ATCC 25922): 3.7 µM | MIC E. coli ([3]; Table 12): 5 µg/mL | MIC E. coli ([3]; Table 15): 5.0 µg/mL | MIC MRSA ([2]; Table 15): 1.0 µg/mL | MIC MRSA ([2]; methicillin resistant): 0.7 µM | MIC MRSE ([5]; Table 15): 2.5 µg/mL | MIC MRSE ([5]; methicilin resistant): 1.8 µM | EC50 (human red blood cells; red cells of human): > 733 µM | EC 50 (toxicity, hemolysis) (human red blood cells; red cells of human): >1000 µg/mL

RWWRYWR-NH2 [LFM 18-24 R1,7 W2,3,6Y5NH2, ARG-TRP-TRP-ARG-TYR-TRP-ARG-CONH2]
MIC E. coli ([3]; ATCC 25922): 8.3 µM | MIC E. coli ([3]; Table 12): 10 µg/mL | MIC E. coli ([3]; Table 15): 10.0 µg/mL | MIC E. coli ([3]; Table 16, peptides with D-amino acids): 10 µg/mL | MIC S. aureus ([1]; ATCC 25923): 0.4 to 0.8 µM | MIC MRSE ([5]; Table 15): 1.0 µg/mL | MIC MRSE ([5]; methicilin resistant): 0.8 µM | EC50 (human red blood cells; red cells of human): > 829 µM | EC 50 (toxicity, hemolysis) (human red blood cells; red cells of human): >1000 µg/mL

YRAWRWAWRWR-NH2 [LFB 17-27 A3,7 R2,11 W4,10 Y1 NH2]
MIC E. coli ([3]; ATCC 25922): 5.9 µM | MIC E. coli ([3]; Table 15): 10.0 µg/mL | MIC S. aureus ([1]; ATCC 25923): 1.5 µM | MIC S. aureus ([1]; Table 15): 2.5 µg/mL | MIC MRSE ([5]; Table 15): 2.5 µg/mL | MIC MRSE ([5]; methicilin resistant): 1.5 µM
